Target: T1, JAK2 (Homo sapiens, UniProt O60674, V617F)
T1 construct: their effect on JAK2 protein degradation in SET2 cells; host or cells: SET2 cells (human essential thrombocythemia)
Assay: Western blot quantitation of JAK2 degradation in SET2 cells
Assay type: cell-based
Settings: 8 hours treatment, western blot densitometry vs. DMSO vehicle
Experimental: Example E. Western Blot Analysis of JAK2 Dependent SET2 Cells Treated with Compounds of the Present Disclosure
SET2 cells (DSMZ, catalog number ACC 608) are isolated from a person with human essential thrombocythemia and carry the JAK2 V617F mutation.
SET2 cells were cultured in RPMI culture medium (Gibco, catalog number 11875085) supplemented with 1% penicillin-streptomycin-glutamine (Thermo Fisher Scientific, catalog number 10378016) and 20% fetal bovine serum (Gibco, catalog number 10438034). Cultured cells were maintained at 37° C., 5% CO2 in the incubator.
Approximately 1,000,000 cells/well were added in 6-well plate containing 1.5 ml culture media with specified concentrations of compounds of the present disclosure or DMSO control. Cells were treated with concentrations of 10 uM, 5 uM, 1 uM, and 0.5 uM. Proteasome inhibitor MG-132 (Cell signaling, catalog number 2194) was added at 20 uM to an additional 10 uM compound treatment. The treatment period was 8 hours. After 8 hours, cells were collected in 1.5 mL microcentrifuge tubes. Tubes were centrifuged at 1500 rpm for 5 min. Supernatant was aspirated and samples were washed with 1 mL of cold PBS. The samples were centrifuged again at 1500 rpm for 5 min, supernatant was aspirated. The sample pellets were lysed using 150 μL of 1× lysing buffer (Cell Signaling Technologies—catalog number 9803S) supplemented with 1× Halt™ Protease and Phosphatase Inhibitor Cocktail (Thermo Fisher Scientific—catalog number 78447). Using Pierce™ BCA Protein Assay Kit (Thermo Fisher Scientific—catalog number 23225), protein concentration of the samples were quantitated. After normalizing sample concentration to approximately 20 ug/well, samples were loaded onto 4-12% Tris-glycine gels. Gels were transferred to nitrocellulose membranes using iBlot 2 Dry Blotting System and iBlot™ 2 Transfer Stacks, nitrocellulose (Thermo Fisher Scientific—catalog number IB23001). Following transfer, membranes were blocked with StartingBlock (Thermo Fisher Scientific—catalog number 37543). After 1 hour of blocking membranes, they were probed for JAK2, pSTAT5, STAT5, CRBN, and GAPDH (Cell Signaling—catalog numbers 3230, 4322, 25656, 71810, and 5174 respectively).
Compounds of the present disclosure were screened at various concentrations to determine their effect on JAK2 protein degradation in SET2 cells, using methods as described above. DMSO was used as the vehicle control with no PROTAC® added. Co-administration of 20 μM of the proteasome inhibitor MG-132 with the PROTAC® compound at its highest concentration (i.e., 5 or 10 μM) tested was conducted to support the hypothesis that the degradation was driven by the ubiquitin-proteosome system (UPS). Degradation was evaluated by western blot densitometry quantitation using the FluorChem M instrument software to analyze the intensity of the JAK2 band signal at various concentrations of PROTAC® compound vs. the JAK2 band signal of the DMSO vehicle. It is noted that ˜82% of JAK2 exists as the V617F mutant, with the remaining 18% of JAK2 being WT. Therefore, if the V617F mutant JAK2 is selectively degraded over the WT, the maximum degradation is ˜80%. Degradation was graded as A: […]; B: ≥40% to <60% degradation; C: ≥20% to <40% degradation, D: <20% to ≥10%; E<10%. ** refers to degradation at 0.5 μM.

T1 sequence (O60674 whole entry V617F): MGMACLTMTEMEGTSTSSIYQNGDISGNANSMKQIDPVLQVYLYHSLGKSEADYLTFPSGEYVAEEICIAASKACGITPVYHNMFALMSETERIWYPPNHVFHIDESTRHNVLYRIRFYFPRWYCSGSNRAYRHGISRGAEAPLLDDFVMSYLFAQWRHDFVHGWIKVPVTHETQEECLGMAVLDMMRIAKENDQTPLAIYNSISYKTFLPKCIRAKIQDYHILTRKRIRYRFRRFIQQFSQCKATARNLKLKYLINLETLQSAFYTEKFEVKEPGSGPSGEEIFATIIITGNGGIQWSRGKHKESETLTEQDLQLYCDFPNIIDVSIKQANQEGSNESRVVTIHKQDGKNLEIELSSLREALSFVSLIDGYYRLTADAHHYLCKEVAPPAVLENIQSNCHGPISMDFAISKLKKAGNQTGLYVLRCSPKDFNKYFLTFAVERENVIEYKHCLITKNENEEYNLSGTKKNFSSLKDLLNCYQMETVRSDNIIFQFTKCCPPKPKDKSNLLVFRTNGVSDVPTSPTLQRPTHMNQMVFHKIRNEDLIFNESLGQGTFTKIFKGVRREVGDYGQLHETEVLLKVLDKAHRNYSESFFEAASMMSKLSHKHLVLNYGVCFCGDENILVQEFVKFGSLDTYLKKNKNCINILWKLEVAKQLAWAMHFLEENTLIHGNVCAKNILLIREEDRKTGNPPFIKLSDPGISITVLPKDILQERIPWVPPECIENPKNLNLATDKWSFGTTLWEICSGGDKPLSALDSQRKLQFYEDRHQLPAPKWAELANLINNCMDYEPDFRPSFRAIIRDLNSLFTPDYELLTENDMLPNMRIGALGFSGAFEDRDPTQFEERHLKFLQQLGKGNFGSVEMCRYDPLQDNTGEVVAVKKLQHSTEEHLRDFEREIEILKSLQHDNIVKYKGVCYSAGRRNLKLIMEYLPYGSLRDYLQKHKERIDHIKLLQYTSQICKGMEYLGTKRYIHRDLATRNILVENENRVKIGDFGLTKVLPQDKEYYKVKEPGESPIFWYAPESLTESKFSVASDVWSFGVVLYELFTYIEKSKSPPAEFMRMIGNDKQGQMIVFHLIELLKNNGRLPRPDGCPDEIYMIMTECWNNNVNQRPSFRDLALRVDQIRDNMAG

Structure (SMILES) | JAK2 % Degradation in SET2 (5 μM compound) | JAK2 % Degradation in SET2 (10 μM compound)
COC(=O)N[C@@H]1CC[C@@H](n2c(=O)n(C)c3cnc4[nH]c(-c5cnn(CC(=O)N6CCC(CN7CCN(c8ccc9c(c8)CN(C8CCC(=O)NC8=O)C9=O)CC7)CC6)c5)c(-c5ccc6c(cnn6C(C)C)c5)c4c32)C1 (stereo partly drawn) [Example 41, methyl ((1R,3R)-3-(7-(1-(2-(4-((4-(2-(2,6-dioxopiperidin-3-yl)-1-oxoisoindolin-5-yl)piperazin-1-yl)methyl)piperidin-1-yl)-2-oxoethyl)-1H-pyrazol-4-yl)-8-(1-isopropyl-1H-indazol-5-yl)-3-methyl-2-oxo-3,6-dihydroimidazo[4,5-d]pyrrolo[2,3-b]pyridin-1(2H)-yl)cyclopentyl) carbamate] | C (C: ≥20% to <40% degradation) | –
COC(=O)N[C@@H]1CC[C@@H](n2c(=O)n(C)c3cnc4[nH]c(-c5ccc(CN6CCN(CC7CCN(c8cccc9c8C(=O)N(C8CCC(=O)NC8=O)C9=O)CC7)CC6)cc5)c(-c5ccc6c(cnn6C(C)C)c5)c4c32)C1 (stereo partly drawn) [Example 42, Methyl((1R,3R)-3-(7-(4-((4-((1-(2-(2,6-dioxopiperidin-3-yl)-1,3-dioxoisoindolin-4-yl)piperidin-4-yl)methyl)piperazin-1-yl)methyl)phenyl)-8-(1-isopropyl-1H-indazol-5-yl)-3-methyl-2-oxo-3,6-dihydroimidazo[4,5-d]pyrrolo[2,3-b]pyridin-1(2H)-yl)cyclopentyl)carbamate] | A (A: ≥600% degradation) | –
COC(=O)N[C@@H]1CC[C@@H](n2c(=O)n(C)c3cnc4[nH]c(-c5ccc(CN6CCC(CN7CCN(c8ccc9c(c8)CN(C8CCC(=O)NC8=O)C9=O)CC7)CC6)cc5)c(-c5ccc6c(cnn6C(C)C)c5)c4c32)C1 (stereo partly drawn) [Example 43, Methyl((1R,3R)-3-(7-(4-((4-((4-(2-(2,6-dioxopiperidin-3-yl)-1-oxoisoindolin-5-yl)piperazin-1-yl)methyl)piperidin-1-yl)methyl)phenyl)-8-(1-isopropyl-1H-indazol-5-yl)-3-methyl-2-oxo-3,6-dihydroimidazo[4,5-d]pyrrolo[2,3-b]pyridin-1(2H)-yl)cyclopentyl)carbamate] | A (A: ≥600% degradation) | –
COC(=O)N[C@@H]1CC[C@@H](n2c(=O)n(C)c3cnc4[nH]c(-c5ccc(CN6CCC(CN7CCN(c8cccc9c8C(=O)N(C8CCC(=O)NC8=O)C9=O)CC7)CC6)cc5)c(-c5ccc6c(cnn6C(C)C)c5)c4c32)C1 (stereo partly drawn) [Example 44, Methyl((1R,3R)-3-(7-(4-((4-((4-(2-(2,6-dioxopiperidin-3-yl)-1,3-dioxoisoindolin-4-yl)piperazin-1-yl)methyl)piperidin-1-yl)methyl)phenyl)-8-(1-isopropyl-1H-indazol-5-yl)-3-methyl-2-oxo-3,6-dihydroimidazo[4,5-d]pyrrolo[2,3-b]pyridin-1(2H)-yl)cyclopentyl)carbamate] | C (C: ≥20% to <40% degradation) | –
CN[C@@H](C)C(=O)N[C@H](C(=O)N1C[C@@H](NC(=O)CC2CCN(C(=O)c3ccc(-c4[nH]c5ncc6c(c5c4-c4ccc5c(cnn5C(C)C)c4)n([C@@H]4CC[C@@H](NC(=O)OC)C4)c(=O)n6C)cc3F)CC2)C[C@H]1C(=O)N[C@@H]1CCCc2ccccc21)C1CCCCC1 [Example 46, Methyl((1R,3R)-3-(7-(4-(4-(2-(((3S,5S)-1-((S)-2-cyclohexyl-2-((S)-2-(methylamino)propanamido)acetyl)-5-(((R)-1,2,3,4-tetrahydronaphthalen-1-yl)carbamoyl)pyrrolidin-3-yl)amino)-2-oxoethyl)piperidine-1-carbonyl)-3-fluorophenyl)-8-(1-isopropyl-1H-indazol-5-yl)-3-methyl-2-oxo-3,6-dihydroimidazo[4,5-d]pyrrolo[2,3-b]pyridin-1(2H)-yl)cyclopentyl)carbamate] | – | D (D: <20% to ≥10%)

From patent US20250092043A1, “Kinase Inhibitors and Degraders” (Incyte Corporation, priority 2023, published 2025)
